“And” between values parts separate entries of the source, which are not always exact repeats. Equal values may be shown once. “Also recorded” adds a separate entry of the source.
Tests used:
[1] = target: T1, oestrogen receptor-alpha (ERα) (Homo sapiens, UniProt P03372); experiment: Transiently transfected E2-responsive luciferase reporter in TamR6 cells; assay type: cell-based; parameters: endogenous in cells; conditions: TamR6, 1 nM E2; read-out: IC50, transcriptional inhibition of transiently transfected E2-responsive luciferase reporter
T1 sequence (P03372 1-595): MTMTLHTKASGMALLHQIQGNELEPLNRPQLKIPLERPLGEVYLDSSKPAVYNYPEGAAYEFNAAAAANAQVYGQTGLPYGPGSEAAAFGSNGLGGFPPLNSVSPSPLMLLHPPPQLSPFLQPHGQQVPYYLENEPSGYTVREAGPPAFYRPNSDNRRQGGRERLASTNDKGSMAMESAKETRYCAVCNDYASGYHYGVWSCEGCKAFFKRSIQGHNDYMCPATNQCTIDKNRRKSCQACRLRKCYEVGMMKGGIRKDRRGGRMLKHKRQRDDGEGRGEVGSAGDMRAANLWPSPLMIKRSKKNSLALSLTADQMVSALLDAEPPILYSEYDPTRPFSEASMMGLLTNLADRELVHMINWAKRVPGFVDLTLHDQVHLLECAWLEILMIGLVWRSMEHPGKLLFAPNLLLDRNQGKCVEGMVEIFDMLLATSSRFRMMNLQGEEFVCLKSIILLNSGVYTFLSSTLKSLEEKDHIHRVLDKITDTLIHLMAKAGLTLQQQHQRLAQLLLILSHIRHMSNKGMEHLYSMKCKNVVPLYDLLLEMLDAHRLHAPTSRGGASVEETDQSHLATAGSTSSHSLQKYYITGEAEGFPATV
Experimental: (§1) For transient transfection, we used pGL2.TATA.Inr.luc plasmid, which contains three copies of vitellogenin oestrogen response element (ERE) upstream of the TATA promoter (3X ERE TATA luc; Addgene plasmid 11354). This is the same plasmid used to construct pGL2.TATA.Inr.luc.neo, used to create the stable cell line T47D-KBluc.
(§2) TamR3 and TamR6 cells were grown in phenol red–free RPMI 1640 supplemented with 10% CSS and 1 μM tamoxifen. The cells were seeded on a 96-well plate (2 × 10^4 cells/well). After 24 hours, the cells were cotransfected with 50 ng each of the ERα-responsive luciferase plasmid and a constitutive Renilla reporter (to normalise for variations in transfection efficiency) using TransIT-2020 reagent (Mirus Bio, Madison, WI, USA). […] The compounds were added in a twofold dilution ranging from 0.1 to 50 μM. […] The medium contained 0.1% (v/v) ethanol and 0.1% (v/v) DMSO. Twenty-four hours after treatment, the medium was aspirated and the cells were lysed by adding 50 μl of 1× passive lysis buffer (Promega). Luciferase activities were assayed using the Dual-Luciferase Reporter Assay System (Promega).

TamR6 cells = experiment: MTS assay, TamR6; assay type: cell-based, human
Experimental: (§3) Cells were seeded in 96-well plates at a density of 5 × 10^3 cells/well. MCF7, […]-MB-453 and HeLa cells were seeded in their respective media. […] After 96 hours, 30 μl of MTS reagent (CellTiter 96 AQueous One Solution Cell Proliferation Assay reagent; Promega) were added and incubated for 90 minutes at 37°C in 5% CO2. The production of formazan was measured at 490 nm.

ERα LBD = target: T2, ERα LBD (Homo sapiens, UniProt P03372); experiment: Bio-layer interferometry assay; assay type: binding; conditions: 3 to 100 μM
T2 construct: ERα LBD (peptides 302 to 552); made in house; host or cells: Escherichia coli BL21
T2 sequence (P03372 302-552): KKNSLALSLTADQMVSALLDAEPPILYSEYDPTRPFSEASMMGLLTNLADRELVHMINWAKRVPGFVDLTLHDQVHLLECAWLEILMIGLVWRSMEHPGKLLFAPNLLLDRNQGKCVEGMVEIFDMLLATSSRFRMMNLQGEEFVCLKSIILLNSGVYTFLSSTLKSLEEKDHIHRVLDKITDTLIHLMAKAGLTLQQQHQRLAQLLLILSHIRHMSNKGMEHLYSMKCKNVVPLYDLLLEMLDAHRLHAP
Source text: The direct reversible interaction between small molecules and the ER-α was quantified by BLI using an Octet RED apparatus (Pall ForteBio, Menlo Park, CA, USA). The LDB of the biotinylated oestrogen receptor-alpha (bERα) was produced in situ with AviTag technology (Avidity, Aurora, CO, USA). […] A six-residue histidine tag was incorporated at the C-terminus of the ERα LBD for purification of the protein. […] The bacteria were then lysed by sonication, and the resulting lysate was purified by immobilised metal ion affinity chromatography with nickel agarose beads and cation exchange chromatography (HiTrap SP; GE Healthcare Life Sciences, Pittsburgh, PA, USA). […] The compounds were dissolved in the assay buffer in a twofold dilution series ranging from 3.1 to 100 μM.
The ERα LBD was biotinylated on the AviTag by a biotin ligase expressed by the bacterial cells cotransformed with the biotin ligase plasmid pBirACm. The bERα LBD was purified by nickel-affinity chromatography and immobilised on streptavidin-coated biosensor tips. The interaction between small molecule and protein was measured in real time as a shift in the interference pattern of the incident light. A response profile was generated on the Octet RED system.

MCF7 cells = experiment: MTS assay, MCF7; assay type: cell-based, human; conditions: MCF7, 96 h, 1 nM E2; read-out: IC50, growth inhibition
Experimental: as §3

[2] = tested on: pS2, cathepsin D and CDC2 protein; experiment: Western blotting of oestrogen-responsive gene products in MCF7 cells; assay type: cell-based, human; conditions: MCF7, 24 h, 1 nM E2; 12 and 6 μM
Experimental: MCF7 cells were serum-starved in phenol red–free RPMI 1640 containing 10% CSS for 5 days. […] After 24 hours, the medium was aspirated, and the cells were washed with ice-cold phosphate-buffered saline. Cells were lysed in 1× radioimmunoprecipitation assay buffer containing one tablet of cOmplete protease inhibitor cocktail (Roche Life Science, Indianapolis, IN, USA). Cell debris was pelleted by centrifugation at 15,000 g for 10 minutes at 4°C. The supernatants were collected and quantified using the BCA assay. In each case, 25 μg of protein was loaded onto 15% (v/v) SDS-PAGE gels, separated and transferred to polyvinylidene fluoride membrane. Membranes were incubated with pS2, cathepsin D and CDC2 antibodies or control α-actin antibody. Bound antibodies were detected using horseradish peroxidase–conjugated secondary antibodies. Chemiluminescence was detected with an Amersham ECL detection kit (GE Healthcare Life Sciences), and bands were visualised using the G:BOX imager (Syngene, Frederick, MD, USA).

[3] = tested on: pS2, cathepsin D and CDC2 mRNA; experiment: Quantitative RT-PCR of oestrogen-responsive genes in MCF7 cells; assay type: cell-based, human; conditions: MCF7, 24 h
Experimental: mRNA levels were analysed by quantitative RT-PCR (qRT-PCR). For this purpose, serum-starved MCF7 cells were seeded onto six-well plates at a density of 6 × 10^5 cells/well. […] RNA was isolated after 24 hours with TRIzol reagent (Life Technologies) and purified with the RNeasy Mini Kit (QIAGEN, Valencia, CA, USA). The purified mRNA was quantified using a NanoDrop spectrophotometer (NanoDrop, Wilmington, DE, USA). RNA (0.5 μg) was reverse-transcribed using the iScript synthesis kit (Bio-Rad Laboratories, Hercules, CA, USA). cDNA product (100 ng) was added to the primer mix. The final concentration of the primers was 5 pM. The sequences of the primers used in the qRT-PCR experiments were as follows: pS2, forward [NT] and reverse [NT]; cathepsin D, forward [NT] and reverse [NT]; CDC2, forward [NT] and reverse [NT]; glyceraldehyde 3-phosphate dehydrogenase (GAPDH), forward [NT] and reverse [NT]. The fold change in expression of the gene was calculated using the 2^-ΔΔCt method with GAPDH as the internal control.

[4] = target: T1, oestrogen receptor-alpha (ERα); experiment: Transiently transfected E2-responsive luciferase reporter in TamR3 cells; assay type: cell-based; parameters: endogenous in cells; conditions: TamR3, 1 nM E2; read-out: IC50, transcriptional inhibition of transiently transfected E2-responsive luciferase reporter
Experimental: as §1, §2

[5] = target: T1, oestrogen receptor-alpha (ERα); experiment: Luciferase oestrogen receptor-alpha transcriptional assay in T47D-KBluc cells; assay type: cell-based; parameters: endogenous in cells; host or cells: T47D-KBluc
Experimental: ERα-positive T47D-KBluc human BCa cells were grown in phenol red–free RPMI 1640 supplemented with 10% CSS for 5 days. The cells were seeded on a 96-well plate (2 × 10^4 cells/well). […] The test compounds were screened at two concentrations: 12 μM and 30 μM. […] The medium contained 0.1% (v/v) ethanol and 0.1% (v/v) DMSO. Twenty-four hours after treatment, the medium was aspirated and the cells were lysed by adding 50 μl of 1× passive lysis buffer (Promega, Madison, WI, USA). The plates were placed on a shaker at room temperature for 15 minutes and then subjected to two freeze–thaw cycles to help lyse the cells. Next, 20 μl of the lysate from each treatment was transferred onto a white, 96-well, flat-bottomed plate (Corning Life Sciences, Corning, NY, USA), and the luminescent signal was measured after adding 50 μl of the luciferase assay reagent (Promega) on a TECAN M200 PRO microplate reader (Tecan, Männedorf, Switzerland). Differences in growth were normalised against total protein concentration, which was measured by bicinchoninic acid (BCA) assay.

TamR3 cells = experiment: MTS assay, TamR3; assay type: cell-based, human
Experimental: as §3

[6] = target: T3, ERα AF2 site (GST-tagged ER-LBD) (Homo sapiens, UniProt P03372); experiment: TR-FRET ERα coactivator (PGC-1α peptide) displacement assay; assay type: biochemical
T3 construct: glutathione S-transferase (GST)-tagged ER-LBD (7.25 nM); purchased Life Technologies PV4544
T3 sequence (P03372 311-547 limits assumed): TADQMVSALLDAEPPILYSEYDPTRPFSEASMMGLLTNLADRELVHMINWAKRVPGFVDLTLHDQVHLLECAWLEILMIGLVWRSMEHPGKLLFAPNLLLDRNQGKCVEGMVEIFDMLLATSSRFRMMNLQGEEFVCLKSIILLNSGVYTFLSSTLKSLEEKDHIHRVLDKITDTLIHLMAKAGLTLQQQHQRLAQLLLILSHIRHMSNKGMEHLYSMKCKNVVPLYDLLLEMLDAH
Experimental: Peptide displacement was assessed with the LanthaScreen TR-FRET ER Alpha Coactivator Assay kit (PV4544; Life Technologies) as per the instructions of the manufacturer. The compounds were tested in the range of 0.1 to 50 μM, and cold PGC-1α was added at threefold dilutions ranging from 1.8 to 50 μM.
Briefly, a twofold serial dilution of the test compounds was prepared at 100× final concentration in DMSO. The compounds were diluted 50-fold in complete assay buffer (assay buffer containing 5 mM dithiothreitol) to get a 2× final concentration and 2% DMSO. […] Ten microlitres of the diluted test compounds were added to a black, flat-bottomed, 384-well plate, followed by addition of 5 μl of the 4× ER-LBD mix.
Tb-labelled anti-GST antibody indirectly labels the ERα LBD by binding to a GST tag on the protein. […] The close proximity of fluorescein-PGC-1α to the terbium-labelled antibody causes an increase in the TR-FRET signal.

[7] = target: T4, biotinylated oestrogen receptor-alpha ligand-binding domain (bERα LBD) (human, UniProt P03372 302-552, biotin on the AviTag); experiment: BLI; Octet RED; bERα LBD bound to Super Streptavidin Sensors; 20 mM Tris pH 7.5, 500 mM NaCl, 0.2 mM TCEP, 0.02 mM E2, 5% glycerol, 5% DMSO; PGC-1α peptide in solution as positive control; conditions: both partners purified
T4 construct: Assay buffer held 0.02 mM E2
T4 sequence (looked up): T2 sequence (P03372 302-552)

CCOc1cc(Br)cc(/C=N/NC(=O)c2ccc3c(c2)OCCO3)c1O [VPC-16230] was tested, and the IC50 [1] was 4.7 µM, the IC50 (TamR6 cells; TamR6, 96 h, 1 nM E2, read-out: IC50, growth inhibition) was 6.3 µM and the “Binding to ERα LBD by BLI” value (ERα LBD) was “direct and reversible interaction”. For the same molecule, the IC50 (MCF7 cells) was 7.8 µM, the “Protein levels of pS2, cathepsin D and CDC2” value [2] was “decreased” and the “mRNA levels of pS2, cathepsin D and CDC2” value ([3]; in the absence of E2, 12, 6 and 3 μM) was “did not significantly inhibit; also recorded: did not significantly decrease”. For the same molecule, the “mRNA levels of pS2, cathepsin D and CDC2” value ([3]; in the presence of 1 nM E2, 12 and 6 μM) was “considerably reduced; also recorded: significantly decreased”, the IC50 [4] was 4.7 µM and the IC50 ([5]; T47D-KBluc cells, 1 nM E2, 24 h, read-out: IC50, inhibition of ERα transcriptional activity (luciferase reporter)) was 5.81 µM and 5.8 µM. For the same molecule, the “Shift of the IC50 curve in the presence of higher concentrations of E2” value ([5]; T47D-KBluc, E2 1, 10, 50, 100 nM) was “did not show any significant shift”, the IC50 ([5]; read-out: IC50, luciferase assay at varied E2, T47D-KBluc, E2 1 nM) was 6.1 µM and the IC50 ([5]; read-out: IC50, luciferase assay at varied E2, T47D-KBluc, E2 100 nM) was 6.5 µM. For the same molecule, the IC50 (TamR3 cells; TamR3, 96 h, 1 nM E2, read-out: IC50, growth inhibition) was 3.4 µM, the IC50 ([6]; TR-FRET, read-out: IC50, displacement of PGC-1α peptide from the AF2 site) was 2.98 µM and the “Shift of dose-response curve with increasing fluorescein-PGC-1α” value ([6]; fluorescein-PGC-1α 250, 500, 1000 nM, compounds 0.05 to 400 μM) was “rightward shift”.

In the case of CC/C(=C(\c1ccccc1)c1ccc(OCCN(C)C)cc1)c1ccccc1 [tamoxifen, reference compound], the “Growth in the presence of 1 μM tamoxifen” value (TamR6 cells; TamR6, 1 μM in the medium) is reported as “not affected” and the “Growth in the presence of 1 μM tamoxifen” value (TamR3 cells; TamR3, 1 μM in the medium) is reported as “not affected”.

For “cold PGC-1α peptide: Cold PGC-1α coactivator peptide (EAEEPSLLKKLLLAPANTQ), known AF2-interacting control [reference compound]”, the “Binding to ERα LBD by BLI” value (ERα LBD) was “direct and reversible interaction” and the “FRET signal with increasing concentration of cold peptide” value ([6]; 1.8 to 50 μM) was “dose-dependent decrease”.

B1: Cold peroxisome proliferator-activated receptor gamma, coactivator 1-alpha (PGC-1α) peptide (peptide)
peptide: EAEEPSLLKKLLLAPANTQ
notes: also called cold PGC-1α peptide; cold PGC-1α; source: synthetic peptide (Elim Biopharmaceuticals)
B1: binds [7].

Reference: paper PMC4360945, “In silico discovery and validation of potent small-molecule inhibitors targeting the activation function 2 site of human oestrogen receptor α” (Breast Cancer Research : BCR, 2015)
